The results in this text go back to US6734190B2, “Dihydrodipyrazolopyridinylbenzamide and -sulfonamide inhibitors of B7-1” (Wyeth, priority 2002, dated 2004).

In one data set the target is T1, B7-1/CD28 (Homo sapiens, UniProt P33681).
T1 sequence (P33681 35-242 limits assumed): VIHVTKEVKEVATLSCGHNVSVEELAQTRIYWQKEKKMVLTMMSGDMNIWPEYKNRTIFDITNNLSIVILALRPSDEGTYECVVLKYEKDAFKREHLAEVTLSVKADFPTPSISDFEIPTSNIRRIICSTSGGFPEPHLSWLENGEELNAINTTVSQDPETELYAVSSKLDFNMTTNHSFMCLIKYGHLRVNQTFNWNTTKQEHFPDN
Description: CD28/B7-1 ELISA (B7-1/CD28 binding inhibition). To be noted: CD28-Fc coated wells; B7-1-Fc-biotin/streptavidin-alkaline phosphatase detection complex; 1% DMSO. The protocol:
Evaluation of B7-1/CD28 Binding Inhibition for Test Compounds
Wells are coated with 300 ng CD28-Fc in carbonate buffer (pH 9.4) overnight at 4° C., blocked with 1% bovine serum albumin in tris-buffered saline (TBS) for 1 h at 22° C. and washed 3 times in TBS prior to assay. The detection complex is formed as follows: B7-1-Fc-biotin, prepared using NHS-LC-biotin (Pierce #21335) according to the manufacturers instructions (4.1 moles biotinimole Fc), is added at 0.8 ug/ml to streptavidin-alkaline phosphatase (Caltag Sa1008) at 1:1000 in TBS. A solution of test compound in dimethylsulfoxide (1% final) are added to this complex and incubated 30 min at 22° C. Detection complex (+/−inhibitors) is then added to the CD28 coated wells for 25 min at 22° C., washed 5 times with TBS, developed with the colorimetric substrate pNPP (Pierce #34045) in diethanolamine/MgCl2 buffer (pH 9.5) and read at 405 nm. The inhibition constant (IC50) is calculated by subtracting background binding and comparing to uninhibited (DMSO alone) controls. The inhibition constant represents the concentration of test compound required to achieve 50% inhibition.

On to `Cn1ncc2c3[nH]n(-c4ccc(C(=O)NCc5ccccc5)cc4)c(=O)c3c(-c3cccc(C(F)(F)F)c3)nc21` [Example 32], for which the melting point lay in the range of 189 to 192 °C. This compound displayed an IC50 at B7-1/CD28 of 79 nM.

As to `Cn1ncc2c3[nH]n(-c4ccc(C(=O)N5CCOCC5)cc4)c(=O)c3c(-c3cccc(C(F)(F)F)c3)nc21` [Example 33, 6-methyl-2-[4-(4-morpholinylcarbonyl)phenyl]-4-[3-(trifluoromethyl)phenyl]-1,6-dihydrodipyrazolo[3,4-b:3,4-d]pyridin-3(2H)-one], the melting point is 287 to 290 °C. At B7-1/CD28, this compound had an IC50 of 13 nM.

With `Cn1ncc2c3[nH]n(-c4ccc(C(=O)Nc5ccc(CCO)cc5)cc4)c(=O)c3c(-c3cccc(C(F)(F)F)c3)nc21` [Example 34], the melting point is 186 to 189 °C. Further, the IC50 on B7-1/CD28 worked out at 23 nM.

The compound `Cn1ncc2c3[nH]n(-c4ccc(C(=O)N5CCCC(CO)C5)cc4)c(=O)c3c(-c3cccc(C(F)(F)F)c3)nc21` (stereo not shown) [Example 36] came in with a melting point of 189.8 to 192.7 °C. Also, the IC50 on B7-1/CD28 came out at 180 nM.

Consider `Cn1ncc2c3[nH]n(-c4ccc(C(=O)NCCCCO)cc4)c(=O)c3c(-c3cccc(C(F)(F)F)c3)nc21` [Example 37], for which the melting point is 280 °C (dec.). For the same compound, at B7-1/CD28, the IC50 stood at 88 nM.

For the compound `CC(=O)c1cccc(NC(=O)c2ccc(-n3[nH]c4c(c(-c5cccc(C(F)(F)F)c5)nc5c4cnn5C)c3=O)cc2)c1` [Example 38], the melting point was 300 °C (dec.). The IC50 at B7-1/CD28 came out at 44 nM.

In turn, `Cn1ncc2c3[nH]n(-c4ccc(C(=O)NCCCCCN)cc4)c(=O)c3c(-c3cccc(C(F)(F)F)c3)nc21` [Example 39] returned a melting point of 234.5 to 236 °C. Besides, the IC50 on B7-1/CD28 amounted to 140 nM.

The compound `COC(=O)c1cccc(NC(=O)c2ccc(-n3[nH]c4c(c(-c5cccc(C(F)(F)F)c5)nc5c4cnn5C)c3=O)cc2)c1` [Example 42] gave a melting point of 220 to 222 °C. On B7-1/CD28, this compound had an IC50 of 94 nM.

As to `Cn1ncc2c3[nH]n(-c4ccc(C(=O)Nc5cccc6c5CCCC6O)cc4)c(=O)c3c(-c3cccc(C(F)(F)F)c3)nc21` (stereo not shown) [Example 43], the melting point is 298 °C (dec.). Further, the IC50 on B7-1/CD28 was determined as 300 nM.

Turning to `Cn1ncc2c3[nH]n(-c4cccc(C(=O)N5CCC[C@H]5C(=O)O)c4)c(=O)c3c(-c3cccc(C(F)(F)F)c3)nc21` [Example 69], the melting point is 168 to 171 °C. This compound also displayed an IC50 at B7-1/CD28 of 100 nM.

Regarding `Cn1ncc2c3[nH]n(-c4ccc(C(=O)Nc5ccc(O)c(O)c5)cc4)c(=O)c3c(-c3cccc(C(F)(F)F)c3)nc21` [Example 98], the melting point fell in the range of 206 to 209 °C. Moreover, the IC50 on B7-1/CD28 is 36 nM.

For orientation: IC50 means the concentration that gives 50% inhibition. Lower therefore signals greater potency in that assay. By melting point is commonly meant the temperature, or range, at which the solid turns liquid.
